The record followed here is paper PMC6282036, “Dual-Specificity Phosphatase CDC25B Was Inhibited by Natural Product HB-21 Through Covalently Binding to the Active Site” (Frontiers in Chemistry, 2018).

Test [1] deals with T1, Cdc25B (Homo sapiens, UniProt P30305).
T1 construct: recombinant human Cdc25B
T1 sequence (P30305 1-580): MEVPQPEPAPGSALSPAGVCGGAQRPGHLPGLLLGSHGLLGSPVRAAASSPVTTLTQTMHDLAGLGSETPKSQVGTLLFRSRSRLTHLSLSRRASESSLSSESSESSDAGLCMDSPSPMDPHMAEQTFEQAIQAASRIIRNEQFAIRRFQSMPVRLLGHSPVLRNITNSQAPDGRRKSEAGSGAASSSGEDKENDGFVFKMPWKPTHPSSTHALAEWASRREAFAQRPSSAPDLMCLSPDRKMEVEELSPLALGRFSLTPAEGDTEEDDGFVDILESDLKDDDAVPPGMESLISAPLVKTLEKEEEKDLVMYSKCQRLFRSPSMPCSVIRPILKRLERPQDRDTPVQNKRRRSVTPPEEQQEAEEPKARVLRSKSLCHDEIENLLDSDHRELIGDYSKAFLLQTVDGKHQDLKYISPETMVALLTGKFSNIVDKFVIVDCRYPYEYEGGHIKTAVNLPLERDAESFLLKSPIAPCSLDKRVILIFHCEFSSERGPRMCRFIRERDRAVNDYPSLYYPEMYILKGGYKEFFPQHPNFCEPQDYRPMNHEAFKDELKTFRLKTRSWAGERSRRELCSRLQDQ
As to the kind of experiment: OMFP fluorometric phosphatase assay (CycLex Cdc25B kit), positive control. It counts as biochemical.

Test [2] addresses T2, Cdc25B (Homo sapiens, UniProt P30305).
T2 construct: Cdc25B catalytic domain (372–551)
T2 sequence (P30305 386-565): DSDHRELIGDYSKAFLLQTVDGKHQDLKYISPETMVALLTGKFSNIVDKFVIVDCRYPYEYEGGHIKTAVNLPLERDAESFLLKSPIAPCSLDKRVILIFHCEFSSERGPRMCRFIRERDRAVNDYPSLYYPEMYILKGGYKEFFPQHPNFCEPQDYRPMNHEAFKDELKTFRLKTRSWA
The test is described as follows: intact protein ESI-Q-TOF MS of covalent adducts; IC50 from OMFP fluorometric assay with recombinant Cdc25B. It is filed as biochemical.

As usually defined, the IC50 is the point on the concentration scale where inhibition reaches its midpoint. `CNC1=CC(=O)c2ccncc2C1=O` [Caulibugulone A] showed a concentration for half-maximal inhibition (IC50) at Cdc25B [1] of 5.37 ± 0.45 µM.
Regarding `C=C1C(=O)O[C@@H]2C[C@H](C)C(CCC(C)=O)=C[C@H](O)[C@H]12` [HB-21], the half-maximal inhibitory concentration (IC50) at Cdc25B [2] is 24.8 ± 1.63 µM.
